Experimental data reported in patent US20160250177A1, “MODIFIED DOCETAXEL LIPOSOME FORMULATIONS AND USES THEREOF” (MALLINCKRODT LLC, priority 2015, published 2016).
Like-named read-outs stand apart in the source and are kept apart here.

Legend:
[1] = Tissue distribution in mice with A549 xenograft; conditions: for Kidney AUC of docetaxel / Liver AUC of docetaxel / Lung AUC of docetaxel / Muscle AUC of docetaxel / Spleen AUC of docetaxel / Tumor AUC of docetaxel: single IV
Description: The plasma pharmacokinetics and distribution were studied in female athymic nude mice each implanted subcutaneously with A549 cells (human non-small cell lung cancer). Once tumors reached a volume of 100-300 mm^3, animals were randomized into 4 groups.
Three animals were sacrificed at 1, 4, 24, 72 (3 days), 168 (7 days), 216 (9 days), 336 (14 days), 432 (18 days) and 504 hours (21 days) post injection.

[2] = clinical; conditions: human, in vivo, iv
[3] = tested on: human PC3 (prostate) tumor xenograft; assay: Antitumor activity, single IV dose, PC3 xenograft; conditions: for Partial Tumor Regression (%) / TGD / TGD (%) / TGI (%) / median survival: single IV
Description: Tumor cell lines were implanted subcutaneously into the flank of nude (immunodeficient) mice and allowed to grow to a fixed size. […] In each case, where possible, doses were selected as providing equivalent levels of toxicity/tolerance. […] Tumor volume was analyzed to determine tumor growth delay (TGD) and partial regression. Mice were removed from the study if they lost 20% of their initial bodyweight or became moribund or if their tumor volume exceeded 2500 mm^3 or the tumor ulcerated. If less than half of the initial cohort of mice remained, that group was no longer graphed or included in further tumor analysis. However, any remaining animals were followed until completion of the in-life observation period and included in a survival analysis.

[4] = tested on: PC3 human prostate xenograft; conditions: for median survival: docetaxel
Description: In another study, athymic male nude mice bearing PC3 human prostate xenograft were given two or four intravenous (IV) doses of PEGylated TD-1 liposome, Taxotere® or saline. Dosing intervals were twenty-one days for two cycles or every four days for four cycles.
Tumor volume was measured 2-3 times per week using the Biopticon tumor imaging system and tumor volume data was analyzed to determine TGD and partial tumor regression. Survival analysis was conducted and median survival time determined.

[5] = cited from earlier work
[6] = human, in vivo; for AUC(0-inf) / AUC/Dose / CL / Cmax/Dose / Vss: iv
[7] = high dose Taxotere® 100 mg/m^2, van Oosterom 1995

With `CC(=O)O[C@@]12CO[C@@H]1C[C@H](O)[C@@]1(C)C(=O)[C@H](O)C3=C(C)[C@@H](OC(=O)[C@H](O)[C@@H](NC(=O)OC(C)(C)C)c4ccccc4)C[C@@](O)([C@@H](OC(=O)c4ccccc4)[C@H]21)C3(C)C` [Docetaxel, docetaxel] the “Kidney AUC of docetaxel” value ([1]; docetaxel 30 mg/kg) was 28 µg·h/g, the “Liver AUC of docetaxel” value ([1]; docetaxel 30 mg/kg) was 10 µg·h/g and the “Lung AUC of docetaxel” value ([1]; docetaxel 30 mg/kg) was 86 µg·h/g. The “Muscle AUC of docetaxel” value ([1]; docetaxel 30 mg/kg) was 23 µg·h/g, the “Spleen AUC of docetaxel” value ([1]; docetaxel 30 mg/kg) was 77 µg·h/g and the “Tumor AUC of docetaxel” value ([1]; docetaxel 30 mg/kg) was 276 µg·h/g. For the same molecule, the “time tumor retained measurable levels of docetaxel” value ([1]; docetaxel 50 mg/kg) was 216 h, the “Kidney AUC of docetaxel” value ([1]; docetaxel 50 mg/kg) was 179 µg·h/g and the “Liver AUC of docetaxel” value ([1]; docetaxel 50 mg/kg) was 37 µg·h/g. For the same molecule, the “Lung AUC of docetaxel” value ([1]; docetaxel 50 mg/kg) was 211 µg·h/g, the “Muscle AUC of docetaxel” value ([1]; docetaxel 50 mg/kg) was 64 µg·h/g and the “Spleen AUC of docetaxel” value ([1]; docetaxel 50 mg/kg) was 162 µg·h/g. The “Tumor AUC of docetaxel” value ([1]; docetaxel 50 mg/kg) was 442 µg·h/g, the “time after which docetaxel concentrations fell below the limits of quantitation in most tissues” value ([1]; docetaxel 50 mg/kg, all tissues except tumor) was 24 h and the “time after which tumor levels of docetaxel fell below the levels of quantitation (1.0 μg/g)” value ([1]; intravenous injection of docetaxel) was “nine”. The Cmax ([2]; 3 mg/m2) was 15.5 ng/mL, the half-life ([2]; 3 mg/m2, t1/2) was 14 h and the Cmax ([2]; 6 mg/m2) was 36.3 ng/mL. For the same molecule, the half-life ([2]; 6 mg/m2, t1/2) was 9.32 h, the Cmax ([2]; 12 mg/m2) was 74.7 ng/mL and the half-life ([2]; 12 mg/m2, t1/2) was 12.3 h. It also gave a Cmax ([2]; 24 mg/m2) of 149 ng/mL, a half-life ([2]; 24 mg/m2, t1/2) of 55.3 h and a Cmax ([2]; 48 mg/m2) of 187 ng/mL. The half-life ([2]; 48 mg/m2, t1/2) was 73.5 h, the Cmax ([2]; 80 mg/m2) was 307 ng/mL and the half-life ([2]; 80 mg/m2, t1/2) was 28.8 h. The Cmax ([2]; 120 mg/m2) was 702 ng/mL, the half-life ([2]; 120 mg/m2, t1/2) was 45.8 h and the Cmax ([2]; 160 mg/m2) was 879 ng/mL. It also gave a half-life ([2]; 160 mg/m2, t1/2) of 51.1 h, an AUC(0-inf) ([2]; 190 mg/m2) of 18800 ng·h/mL and a Cmax ([2]; 190 mg/m2) of 1130 ng/mL. For the same molecule, the half-life ([2]; 190 mg/m2, t1/2) was 51.9 h, the AUC(0-inf) ([2]; 225 mg/m2) was 33900 ng·h/mL and the Cmax ([2]; 225 mg/m2) was 1040 ng/mL. For the same molecule, the half-life ([2]; 225 mg/m2, t1/2) was 61.8 h, the AUC(0-inf) ([2]; 270 mg/m2) was 26200 ng·h/mL and the Cmax ([2]; 270 mg/m2) was 1190 ng/mL. The half-life ([2]; 270 mg/m2, t1/2) was 35.5 h, the AUC(0-inf) ([2]; 320 mg/m2) was 37600 ng·h/mL and the Cmax ([2]; 320 mg/m2) was 1740 ng/mL. The half-life ([2]; 320 mg/m2, t1/2) was 40.8 h, the AUC(0-inf) ([2]; 380 mg/m2) was 107000 ng·h/mL and the Cmax ([2]; 380 mg/m2) was 2900 ng/mL. For the same molecule, the half-life ([2]; 380 mg/m2, t1/2) was 67.7 h, the “Partial Tumor Regression (%)” value ([3]; docetaxel 9 mg/kg) was 0% and the TGD ([3]; docetaxel 9 mg/kg) was 11. For the same molecule, the “TGD (%)” value ([3]; docetaxel 9 mg/kg) was 42%, the “TGI (%)” value ([3]; docetaxel 9 mg/kg) was 38% and the “median survival” value ([3]; docetaxel 9 mg/kg) was 47 days. For the same molecule, the “Partial Tumor Regression (%)” value ([3]; docetaxel 18 mg/kg) was 33%, the TGD ([3]; docetaxel 18 mg/kg) was 41 and the “TGD (%)” value ([3]; docetaxel 18 mg/kg) was 154%. For the same molecule, the “TGI (%)” value ([3]; docetaxel 18 mg/kg) was 91%, the “median survival” value ([3]; docetaxel 18 mg/kg) was 81 days and the “Partial Tumor Regression (%)” value ([3]; docetaxel 27 mg/kg) was 60%. The TGD ([3]; docetaxel 27 mg/kg) was 42, the “TGD (%)” value ([3]; docetaxel 27 mg/kg) was 157% and the “TGI (%)” value ([3]; docetaxel 27 mg/kg) was 98%. The “median survival” value ([3]; docetaxel 27 mg/kg) was 84 days, the tumor growth ([3]; docetaxel 18 and 27 mg/kg) was “inhibited tumor growth” and the “survival compared to saline” value ([3]; docetaxel 18 and 27 mg/kg, all doses of TD-1 liposomes and PEGylated TD-1 liposomes, p<0.05, Mantel-Cox log-rank) was “increased survival significantly more than saline”. The “growth of PC3 human prostate xenograft (mean tumor volume over time)” value ([4]; IV administration, FIG. 8A) was “dose dependently inhibited growth”, the “Partial Tumor Regression (%)” value ([4]; docetaxel 5 mg/kg (q4dx4)) was 0% and the TGD ([4]; docetaxel 5 mg/kg (q4dx4)) was 34 days. The “TGD (%)” value ([4]; docetaxel 5 mg/kg (q4dx4)) was 213%, the “Partial Tumor Regression (%)” value ([4]; docetaxel 10 mg/kg (q4dx4)) was 80% and the TGD ([4]; docetaxel 10 mg/kg (q4dx4)) was 69 days. For the same molecule, the “TGD (%)” value ([4]; docetaxel 10 mg/kg (q4dx4)) was 431%, the “Partial Tumor Regression (%)” value ([4]; docetaxel 30 mg/kg (q21dx2)) was 100% and the TGD ([4]; docetaxel 30 mg/kg (q21dx2)) was 73 days. For the same molecule, the “TGD (%)” value ([4]; docetaxel 30 mg/kg (q21dx2)) was 456%, the “Partial Tumor Regression (%)” value ([4]; docetaxel 60 mg/kg (q21dx2)) was 100% and the TGD ([4]; docetaxel 60 mg/kg (q21dx2)) was 86 days. For the same molecule, the “TGD (%)” value ([4]; docetaxel 60 mg/kg (q21dx2)) was 538%, the median survival ([4]; 1st dose group listed (5 mg/kg q4dx4 by order of Table 8)) was 62 days and the median survival ([4]; 2nd dose group listed (10 mg/kg q4dx4 by order of Table 8)) was 88 days. The median survival ([4]; 3rd dose group listed (30 mg/kg q21dx2 by order of Table 8)) was 93 days, the median survival ([4]; 4th dose group listed (60 mg/kg q21dx2 by order of Table 8)) was 107 days and the “reported t1/2” value ([5]; Taxotere® (docetaxel), Clarke & Rivory 1999, Prescribing Information) was 12 h. The “docetaxel Cmax” value [5, 7] was 2680 ng/mL, the docetaxel half-life [5, 7] was 10 to 19 h and the “docetaxel Cmax associated with increased incidence of adverse effects” value ([5]; plasma, therapeutic window, FIG. 2) was “above 0.64 μg/ml”. For the same molecule, the “CL (mean)” value [6] was 14.13 L/h/m^2, the “Cmax and AUC with respect to dose” value [6] was “remained linear with respect to dose” and the “Vss (mean)” value [6] was 458.8 L/m^2. For the same molecule, the “dose proportionality for Cmax and AUCinf” value [6] was “demonstrate dose proportionality”, the AUC(0-inf) ([6]; 3 mg/m2) was 225 ng·h/mL and the AUC(0-inf) ([6]; 6 mg/m2) was 265 ng·h/mL. For the same molecule, the AUC(0-inf) ([6]; 12 mg/m2) was 721 ng·h/mL, the AUC/Dose ([6]; 12 mg/m2) was 60.1 m^2 · ng · h/ml/mg and the CL ([6]; 12 mg/m2) was 16.92 l/h/m^2. It also gave a Cmax/Dose ([6]; 12 mg/m2) of 6.22 m^2 · ng/ml/mg, a Vss ([6]; 12 mg/m2) of 257.1 l/m^2 and an AUC(0-inf) ([6]; 24 mg/m2) of 4899 ng·h/mL. The AUC(0-inf) ([6]; 48 mg/m2) was 5297 ng·h/mL, the AUC/Dose ([6]; 48 mg/m2) was 110.4 m^2 · ng · h/ml/mg and the CL ([6]; 48 mg/m2) was 13.29 l/h/m^2. For the same molecule, the Cmax/Dose ([6]; 48 mg/m2) was 3.90 m^2 · ng/ml/mg, the Vss ([6]; 48 mg/m2) was 705.3 l/m^2 and the AUC(0-inf) ([6]; 80 mg/m2) was 4798 ng·h/mL. The AUC(0-inf) ([6]; 120 mg/m2) was 28103 ng·h/mL, the AUC/Dose ([6]; 120 mg/m2) was 234.2 m^2 · ng · h/ml/mg and the CL ([6]; 120 mg/m2) was 7.15 l/h/m^2. It also gave a Cmax/Dose ([6]; 120 mg/m2) of 5.85 m^2 · ng/ml/mg, a Vss ([6]; 120 mg/m2) of 292.5 l/m^2 and an AUC(0-inf) ([6]; 160 mg/m2) of 16518 ng·h/mL. For the same molecule, the AUC/Dose ([6]; 225 mg/m2) was 150.8 m^2 · ng · h/ml/mg, the CL ([6]; 225 mg/m2) was 6.75 l/h/m^2 and the Cmax/Dose ([6]; 225 mg/m2) was 4.64 m^2 · ng/ml/mg. The Vss ([6]; 225 mg/m2) was 413.4 l/m^2, the AUC/Dose ([6]; 320 mg/m2) was 117.6 m^2 · ng · h/ml/mg and the CL ([6]; 320 mg/m2) was 9.14 l/h/m^2. It also gave a Cmax/Dose ([6]; 320 mg/m2) of 5.43 m^2 · ng/ml/mg and a Vss ([6]; 320 mg/m2) of 404.0 l/m^2.
